Legend:
[1] = system: Rattus norvegicus; assay: Percent Edema variation in Carrageenan-induced paw edema test at a dose of 100 mg/kg perorally in rats after 180 min; assay type: functional; details: route oral
[2] = Peroral dose causing 50% death of the mice population; assay type: ADME, organism-based; details: mouse, in vivo, po
[3] = Minimum concentration which causes 50% of the Artemia salina larvae to lose mobility; assay type: ADME, organism-based; details: in vivo
[4] = system: Rattus norvegicus; assay: Reaction time in Hot plate test at a dose of 100 mg/kg perorally in rats after 120 min; assay type: functional; details: route oral
[5] = system: Rattus norvegicus; assay: Number of writhings in Acetic acid Writhing test at a dose of 100 mg/kg perorally in rats; assay type: functional; details: route oral
[6] = system: Rattus norvegicus; assay: Percent Edema variation in Carrageenan-induced paw edema test at a dose of 100 mg/kg perorally in rats after 60 min; assay type: functional; details: route oral
[7] = system: Rattus norvegicus; assay: Reaction time in Hot plate test at a dose of 100 mg/kg perorally in rats after 60 min (p<0.05); assay type: functional; details: route oral
[8] = system: Rattus norvegicus; assay: Analgesic activity was determined using acetic acid writing test at a dose of 100 mg/kg perorally in rats.(p<0.01); assay type: functional; details: route oral
[9] = system: Rattus norvegicus; assay: Animals with Hyperemia in Carrageenan-induced paw edema test at a dose of 100 mg/kg perorally in rats; assay type: functional; details: route oral
[10] = system: Rattus norvegicus; assay: Percent Edema variation in Carrageenan-induced paw edema test at a dose of 100 mg/kg perorally in rats after 120 min; assay type: functional; details: route oral
[11] = system: Rattus norvegicus; assay: Reaction time in Hot plate test at a dose of 100 mg/kg perorally in rats after 180 min; assay type: functional; details: route oral
[12] = system: Rattus norvegicus; assay: Animals with Ulcers in Carrageenan-induced paw edema test at a dose of 100 mg/kg perorally in rats; assay type: functional; details: route oral
[13] = system: Rattus norvegicus; assay: Reaction time in Hot plate test at a dose of 100 mg/kg perorally in rats after 120 min (p<0.05); assay type: functional; details: route oral
[14] = system: Rattus norvegicus; assay: Reaction time in Hot plate test at a dose of 100 mg/kg perorally in rats after 180 min (p<0.05); assay type: functional; details: route oral
[15] = system: Rattus norvegicus; assay: Percent Edema variation in Carrageenan-induced paw edema test at a dose of 100 mg/kg perorally in rats after 60 min (p<0.01); assay type: functional; details: route oral
[16] = system: Rattus norvegicus; assay: Percent Edema variation in Carrageenan-induced paw edema test at a dose of 100 mg/kg perorally in rats after 180 min (p<0.001); assay type: functional; details: route oral
[17] = system: Rattus norvegicus; assay: Analgesic activity was determined using acetic acid writing test at a dose of 100 mg/kg perorally in rats.(p<0.05); assay type: functional; details: route oral
[18] = system: Rattus norvegicus; assay: Reaction time in Hot plate test at a dose of 100 mg/kg perorally in rats after 60 min; assay type: functional; details: route oral
[19] = Animals with Ulcers in Carrageenan-induced paw edema test at a dose of 50 mg/kg perorally in rats; assay type: functional; details: route oral
[20] = Animals with Hyperemia in Carrageenan-induced paw edema test at a dose of 25 mg/kg perorally in rats; assay type: functional; details: route oral
[21] = system: Rattus norvegicus; assay: Percent Edema variation in Carrageenan-induced paw edema test at a dose of 50 mg/kg perorally in rats after 60 min (p<0.01); assay type: functional; details: route oral
[22] = system: Rattus norvegicus; assay: Reaction time in Hot plate test at a dose of 100 mg/kg perorally in rats after 120 min (p<0.01); assay type: functional; details: route oral
[23] = system: Rattus norvegicus; assay: Reaction time in Hot plate test at a dose of 100 mg/kg perorally in rats after 60 min (p<0.01); assay type: functional; details: route oral
[24] = system: Rattus norvegicus; assay: Percent Edema variation in Carrageenan-induced paw edema test at a dose of 50 mg/kg perorally in rats after 120 min (p<0.01); assay type: functional; details: route oral
[25] = system: Rattus norvegicus; assay: Percent Edema variation in Carrageenan-induced paw edema test at a dose of 25 mg/kg perorally in rats after 180 min (p<0.01); assay type: functional; details: route oral
[26] = system: Rattus norvegicus; assay: Percent Edema variation in Carrageenan-induced paw edema test at a dose of 100 mg/kg perorally in rats after 120 min (p<0.001); assay type: functional; details: route oral
[27] = system: Rattus norvegicus; assay: Analgesic activity was determined using acetic acid writing test at a dose of 100 mg/kg perorally in rats. (p<0.01); assay type: functional; details: route oral
[28] = system: Rattus norvegicus; assay: Percent Edema variation in Carrageenan-induced paw edema test at a dose of 50 mg/kg perorally in rats after 180 min (p<0.01); assay type: functional; details: route oral
[29] = Animals with Hyperemia in Carrageenan-induced paw edema test at a dose of 50 mg/kg perorally in rats; assay type: functional; details: route oral
[30] = system: Rattus norvegicus; assay: Percent Edema variation in Carrageenan-induced paw edema test at a dose of 25 mg/kg perorally in rats after 120 min (p<0.01); assay type: functional; details: route oral
[31] = system: Rattus norvegicus; assay: Reaction time in Hot plate test at a dose of 100 mg/kg perorally in rats after 180 min (p<0.001); assay type: functional; details: route oral
[32] = system: Rattus norvegicus; assay: Percent Edema variation in Carrageenan-induced paw edema test at a dose of 100 mg/kg perorally in rats after 180 min (p<0.01); assay type: functional; details: route oral
[33] = Animals with Ulcers in Carrageenan-induced paw edema test at a dose of 25 mg/kg perorally in rats; assay type: functional; details: route oral
[34] = system: Rattus norvegicus; assay: Percent Edema variation in Carrageenan-induced paw edema test at a dose of 25 mg/kg perorally in rats after 60 min (p<0.01); assay type: functional; details: route oral
[35] = system: Rattus norvegicus; assay: Analgesic activity was determined using acetic acid writing test at a dose of 100 mg/kg perorally in rats.; assay type: functional; details: route oral
[36] = system: Rattus norvegicus; assay: Percent Edema variation in Carrageenan-induced paw edema test at a dose of 100 mg/kg perorally in rats after 60 min (p<0.001); assay type: functional; details: route oral

SMILES: COc1ccc([C@H]2SCC(=O)N2CCN2C(=O)CS[C@H]2c2ccc(OC)c(F)c2)cc1F
- Edema variation [1]: 30.11%
- LD50 [2]: > 1000 mg/kg
- LC50 [3]: > 1000 µg/mL
- Reaction time [4]: 12.3 s
- No. of writhings [5]: 10.2
- Edema variation [6]: 22.13%
- Reaction time [7]: 16.1 s
- inhibition in vivo at 100 mg/kg [8]: 50%
- Animals [9]: 20%
- Edema variation [10]: 25.12%
- Reaction time [11]: 12.5 s
- Animals [12]: 40%

SMILES: O=C1CS[C@H](c2ccc(Cl)c(Cl)c2)N1CCN1C(=O)CS[C@H]1c1ccc(Cl)c(Cl)c1
- Edema variation [1]: -61.2%
- LD50 [2]: > 1000 mg/kg
- LC50 [3]: > 1000 µg/mL
- Reaction time [13]: 22.5 s
- No. of writhings [5]: 4.6
- Edema variation [6]: -61.12%
- Reaction time [7]: 18.7 s
- inhibition in vivo at 100 mg/kg [8]: 77%
- Animals [9]: 40%
- Edema variation [10]: -61.1%
- Animals [12]: 0%
- Reaction time [14]: 22.9 s

SMILES: O=C1CSC(c2cccc([N+](=O)[O-])c2)N1CCN1C(=O)CSC1c1cccc([N+](=O)[O-])c1 (centres undefined)
- Edema variation [1]: 23.43%
- LD50 [2]: > 1000 mg/kg
- Edema variation [15]: -35.52%
- LC50 [3]: > 1000 µg/mL
- Animals [9]: 40%
- Edema variation [10]: -0.31%
- Animals [12]: 0%

SMILES: COc1ccc(C2SCC(=O)N2CCN2C(=O)CSC2c2ccc(OC)cc2)cc1 (centres undefined)
- Edema variation [16]: -64.98%
- LD50 [2]: > 1000 mg/kg
- LC50 [3]: > 1000 µg/mL
- Reaction time [4]: 15.1 s
- No. of writhings [5]: 15.8
- Edema variation [6]: 39.52%
- inhibition in vivo at 100 mg/kg [17]: 22%
- Animals [9]: 20%
- Edema variation [10]: -26.62%
- Reaction time [11]: 13.9 s
- Reaction time [18]: 11.2 s
- Animals [12]: 0%

SMILES: COc1ccc([C@H]2SCC(=O)N2CCN2C(=O)CS[C@H]2c2ccc(OC)c(OC)c2)cc1OC
- Animals [19]: 0%
- Animals [20]: 20%
- Edema variation [21]: -53.62%
- LD50 [2]: > 1000 mg/kg
- Reaction time [22]: 26.8 s
- Reaction time [23]: 26.6 s
- Edema variation [24]: -59.49%
- Edema variation [25]: -40.09%
- Edema variation [26]: -62.33%
- Edema variation [15]: -58.28%
- LC50 [3]: > 1000 µg/mL
- No. of writhings [5]: 10
- inhibition in vivo at 100 mg/kg [27]: 51%
- Edema variation [28]: -44.26%
- Animals [9]: 20%
- Animals [29]: 20%
- Edema variation [30]: -53.28%
- Reaction time [31]: 36.4 s
- Edema variation [32]: -58.01%
- Animals [33]: 0%
- Edema variation [34]: -38.33%
- Animals [12]: 0%

SMILES: O=C1CS[C@H](c2cccc([N+](=O)[O-])c2)N1CCN1C(=O)CS[C@H]1c1cccc([N+](=O)[O-])c1
- Edema variation [16]: 21.11%
- LD50 [2]: > 1000 mg/kg
- inhibition in vivo at 100 mg/kg [35]: 13%
- Edema variation [26]: -67.3%
- LC50 [3]: > 1000 µg/mL
- Reaction time [13]: 19.4 s
- No. of writhings [5]: 17.8
- Reaction time [7]: 17.1 s
- Animals [9]: 40%
- Edema variation [36]: -83.3%
- Animals [12]: 0%
- Reaction time [14]: 22 s

SMILES: Cc1cccc(C2SCC(=O)N2CCN2C(=O)CSC2c2cccc(C)c2)c1 (centres undefined)
- Edema variation [1]: -23.6%
- LD50 [2]: > 1000 mg/kg
- LC50 [3]: > 1000 µg/mL
- Edema variation [6]: 43.41%
- Animals [9]: 20%
- Edema variation [10]: -0.13%
- Animals [12]: 0%

Source: ChEMBL document CHEMBL1133821, “Synthesis and antiinflammatory, analgesic activity of 3,3'-(1,2-ethanediyl)-bis[2-aryl-4-thiazolidinone] chiral compounds. Part 10” (Bioorg Med Chem Lett, 2001)
